From US9125406B2, “Methods and compositions for control of cabbage looper, trichoplusia ni” (Simon Fraser University, priority 2008, dated 2015)
Like-named read-outs stand apart in the source and are kept apart here.

How the values were obtained:
[1] = system: T. ni moths; test: Oviposition choice (deterrence) bioassay on cabbage leaves; assay type: in vivo, Trichoplusia ni; conditions: for % deterrence / Index = deterrence/mortality: Table 11; for % deterrence: BL mark not explained; for Index = deterrence/mortality: oviposition deterrence divided by mortality
Experimental: (§1) Initial screening for feeding deterrent effects was conducted at 50 μg/cm^2 in feeding deterrent bioassays.
T. ni larvae were reared on normal diet from neonates (<24 h old) until pupation. Pupae were sexed and put in separate plastic containers until emergence. After eclosion, pairs of moths (one male and one female) were introduced into each cage with a control and a treated cabbage leaf. Pairs of moths (n=25) were used per treatment. Each leaf (approximately 100-110 cm^2) was sprayed with 0.5 mL of MeOH or a methanolic solution of the test chemical on each side. Eggs were counted on each cabbage leaf after 48 h.

[2] = system: T. ni moths; test: as above; assay type: in vivo, Trichoplusia ni; conditions: for pest or weed control at 0.25 %: Trichoplusia, 48 h, read-out: OD (%) Mean ± SE N = 35-40
[3] = system: third instar T. ni larvae; test: Leaf disk choice feeding deterrence bioassay; assay type: in vivo, Trichoplusia ni; conditions: for pest or weed control at 50 µg/cm2, 50 µg/cm2 / pest or weed control at 50 µg/cm2: Trichoplusia, foliar; for pest or weed control at 50 µg/cm2: read-out: % deterrence; for DC50: feeding deterrence DC50, unit not given in Table 12
Excerpt: Cabbage plants (Brassica oleraceae var. Stonehead) used in the bioassays were routinely grown in plastic pots with a mixture of sandy loam soil and peat moss (4:1) in a greenhouse at the University of British Columbia, Vancouver, BC, Canada. Leaves were collected from cabbage plants that were 5-6 weeks old.
T. ni larvae and moths were obtained from a long established colony (>50 generations) maintained on an artificial diet, Velvetbean Caterpillar Diet No. F9796 [Bio-Sery Inc. (Frenchtown, NIL)] in the insectary of the University of British Columbia (UBC).
as §1
Larvae were given the choice of feeding on two leaf disks, one treated with 10 μL of a solution of the test substance painted on each side and the other treated with a carrier solvent alone. The number of larvae was 25 per treatment.
Feeding deterrence data (percent) for initial screening concentration were analyzed by analysis of variance (ANOVA) after arcsin transformation using statistics software (Statistix 7. Analytical Software, Statistix 7 for Windows 95, 98, NT, 2000. Analytical Software, Tallahassee).

[4] = system: third instar T. ni larvae; test: whole plant or invertebrate; conditions: for mortality at 0.25 %: Trichoplusia, topical, 24 h
Experimental: as §1
Mortality was determined 24 h after spraying larvae directly with test solutions. Third instar T. ni larvae were sprayed in 90 mm×15 mm Petri dishes (Falcon) lined with Fisher Scientific filter paper (90 mm diameter). Small plastic hand spraying bottles (50 mL capacity) were used. Larvae were then transferred to Petri dishes (90 mm×15 mm) with a small piece of artificial diet. Each Petri dish contained 10 larvae. Three replicates, each consisting of 10 larvae, were used per treatment.

[5] = system: Trichoplusia ni larva; test: Leaf-disc choice bioassay on cabbage: dose-response and blend assay (Example 12); assay type: in vivo
Experimental: T. ni larvae were raised from eggs (Insect Production Services, Natural Resources Canada) on a wheat-germ based artificial diet (McMorran diet, Insect Production Services, Natural Resources Canada), or raised from eggs from a laboratory colony of T. ni adults, at 22±1° C., 32-40% humidity, 9 h/15 h light/dark photoperiod.
Cabbage (Brassica oleracea L. cv. Golden Acre) plants were grown from seed (Pacific Northwest Seeds, Vernon, B.C.) in sandy loam soil in the laboratory at 21±1° C. beside a south-facing window. Plants received supplemental lighting from grow-lights emitting light of wavelengths 430 and 662 nm for 2 h/d. Plants were about 2-3 months old (with about 8-12 fully expanded leaves) at time of leaf collection for disc choice bioassays.
3c{3,6} was synthesized as described herein. Azadirachtin in a neem oil preparation (TreeAzin [5% azadirachtins A and B]) was obtained from BioForest Technologies Inc., Sault Step. Marie, Canada. Azadirachtin solutions were prepared fresh on the day of the bioassay to avoid degradation. Cetyl alcohol was obtained from Sigma, palmitic acid from BDH Chemicals Ltd., methanol (HPLC-grade) from Calcdon, and isopropanol (2-propanol-205, distilled in glass) from Calcdon Ammonium hydroxide solution was obtained from CanLab.
Blend and whole plant studies used a “vehicle” that consisted of palmitic acid (25 mM), cetyl alcohol (25 mM), and isopropanol (50%). The vehicle was prepared by dissolving palmitic acid and cetyl alcohol in isopropanol. The solution was neutralized with 1M NaOH, followed by step-wise dilution with water.
Leaf discs (disc area: 2.24 cm^2) cut with a no. 10 borer from cabbage plant leaves were painted on each side with 20 μL of treatment solution or solvent, using a Hamilton 25 μL glass syringe, and allowed to dry. One treatment and one control leaf disc were placed on opposite sides (5 cm apart) of a 9 cm diameter Petri dish containing moistened filter paper (Whatman #1, 70 mm). A fasting Trichoplusia ni larva was placed midway between the two leaf discs and oriented away from either disc. Replicate Petri dishes were kept in a plastic basin, protected from light, at 22±1° C. during the feeding period. Larvae fasted for approximately 7 h prior to the experiments. […]
Leaf disc areas consumed were measured using a Canon CanoS can LiDE 20 scanner, CanoScan Toolbox 4.1 software, Microsoft Office Picture Manager, and Un-Scan-It Gel and Graph Digitizing Software v. […]
In the dose-response study leaf-disc choice bioassays were performed with larvae in day 1 or 2 of the 3rd and 4th instar. […] There were not enough data points in the dose-response data for a sigmoidal fit, but the DC50 could be determined by linear regression analysis, as was the case for Akhtar et al. (2007). […]

[6] = system: T. ni neonates; test: Greenhouse test on cabbage plants with T. ni neonates; assay type: in vivo, Trichoplusia ni; conditions: for mean larval recovery / weight reduction: 6 days
Experimental: […] Cabbage plants had 3-5 leaves. Each plant was sprayed (˜1 ml/leaf) and dried before the introduction of insects. There were 3 replicates of 5 plants for each treatment. Approximately nine T. ni neonates (<24 h old) were transferred on each plant. They were weighed after 6 days of feeding on the treatments. Numbers of larvae recovered from each treatment were also recorded. […] The mean larval recovery was not affected at the lowest concentration (0.0002%).

[7] = oviposition deterrence at 0.25%
[8] = Table 8, 50 μg/cm^2, read-out: F.D (%) Mean ± SE N = 25
[9] = feeding deterrence (FD), Table 12, non-toxic feeding deterrents
[10] = read-out: Mortality (%) N = 3 × 10, Table 8, at 0.25%
[11] = contact toxicity to larvae, negative or zero values replaced by 0.1 for the index (footnote b)
[12] = read-out: Mortality (%) N = 3 × 10, Table 10, at 0.25%

| Compound | pest or weed control at 0.25 % ([2]; Table 8, at 0.25%) | pest or weed control at 50 µg/cm2, 50 µg/cm2 [3, 8] | pest or weed control at 50 µg/cm2 [3, 9] | DC50 [3] | mortality at 0.25 % [4, 10] | % mortality [4, 11] | also measured |
| --- | --- | --- | --- | --- | --- | --- | --- |
| CCCCOc1ccccc1OCCC [3a{3, 4}, 1-propoxy-2-butoxybenzene] | 37 ± 14% | 98 ± 2% | 98% | 21 μg/cm^2 | 19% | 19% | % deterrence [1, 7]: 37 BL %; Index = deterrence/mortality [1]: 1.9 |
| C=CCOc1ccccc1OCCCC [3a{4, 6}, 1-allyloxy-2-butoxybenzene] | 35 ± 17% | 92 ± 6% | 92% | 17 μg/cm^2 | 19% | 19% | % deterrence [1, 7]: 35 BL %; Index = deterrence/mortality [1]: 1.8 |
| C=CCOc1cccc(OC)c1 [3b{1, 6}, 1-allyloxy-3-methoxybenzene] | 9 ± 14% | 66 ± 12% | – | – | 33% | – | – |
| CCCOc1cccc(OCCC(C)C)c1 [3b{3, 5}, 3-propoxy-1-isopentoxybenzene] | 9 ± 17% | 97 ± 3% | 97% | 17 μg/cm^2 | 10% | 10% | – |
| C=CCOc1cccc(OCC=C)c1 [3b{6, 6}, 1,3-Diallyloxy benzene] | 25 to 30% | 97 ± 3% | 97% | 20 μg/cm^2 | 13% | 13% | – |
| CCCOc1ccc(OCC)cc1 [3c{2, 3}, 4-ethoxy-1-propoxybenzene] | 10 ± 13% | 100% | 100% | 33 μg/cm^2 | 17% | 17% | – |
| C=CCOc1ccc(OCC)cc1 [3c{2, 6}, 1-allyloxy-4-ethoxybenzene] | < 30% | 73 ± 12% | – | – | 6.7% | – | – |
| C=CCOc1ccc(OCCC)cc1 [3c{3, 6}, 1-allyloxy-4-propoxybenzene] | < 30% | 100% | 100% | 0.5 μg/cm^2 | – | −11 ^b % | FDI (%) mean (SE) ([5]; 45 ug/cm^2): 100 (0) b %; FDI (%) mean (SE) ([5]; 45 ug/cm^2, listed as 3c{3,6}): 100±0%; DC50 ([5]; 3rd and 4th instar larvae, 83% methanol, linear regression 9 to 45 μg/cm^2): 27 μg/cm^2; mean larval recovery ([6]; 0.0002% spray): not affected; weight of the larvae ([6]; 0.0002% spray, 6 days feeding on cabbage plants): not affected; mean larval recovery ([6]; 0.0005% spray): 66.7%; weight reduction ([6]; 0.0005% spray): 33.3%; mean larval recovery ([6]; 0.001% spray): 52%; weight reduction ([6]; 0.001% spray): 48%; growth reduction ([6]; 10 ppm, highest concentration): ~50% |
| C=CCOc1ccc(OCCC(C)C)cc1 [3c{5, 6}, 1-allyloxy-4-isopentoxybenzene] | -25 ± 12% | – | – | – | – | – | pest or weed control at 0.25 % ([1]; Trichoplusia, 48 h, Table 3, oviposition deterrence at 0.25%, 48 h, read-out: OD (%), mean ± SE (n = 25-33)): 18.8 ± 14.3%; pest or weed control at 50 µg/cm2, 50 µg/cm2 ([3]; Table 3, 1,4-dialkoxybenzenes, feeding deterrence at 50 μg/cm^2, read-out: FD (%), mean ± SE (n = 25)): 75.1 ± 12.7%; mortality at 0.25 % ([4]; read-out: mortality (%) (n = 3 × 10), Table 3, at 0.25%): 7% |
| C=CCc1c(OCC)cccc1OCCC [5b{3, 2} y (100% y), 1-ethoxy-2-allyl-3-propoxy-benzene] | – | – | – | – | – | – | pest or weed control at 0.25 % ([2]; Table 7, second lots and purified isomers, at 0.25%): -6.4 ± 11.4%; pest or weed control at 50 µg/cm2, 50 µg/cm2 ([3]; Table 7, second lots and purified isomers, 50 μg/cm^2, read-out: F.D (%) Mean ± SE N = 25): 74 ± 14%; mortality at 0.25 % ([4]; read-out: Mortality (%) N = 3 × 10, Table 7, second lots and purified isomers, at 0.25%): 0% |
| C=CCc1cc(OC)ccc1OC [5c{1, 1}, 1,4-dimethoxy-2-allyl-benzene] | – | – | – | 20 μg/cm^2 | – | – | pest or weed control at 0.25 % [2]: 14 ± 12%; pest or weed control at 50 µg/cm2 [3]: 80%; pest or weed control at 50 µg/cm2, 50 µg/cm2 ([3]; read-out: F.D (%) Mean ± SE N = 25): 80 ± 11%; mortality at 0.25 % [4, 12]: 38.9%; % mortality ([4]; in vivo): 39% |
| C=CCc1cc(OCCC)ccc1OC [5c{3, 1}, 1-methoxy-2-allyl-4-propoxy-benzene] | – | – | 92% | 9 μg/cm^2 | – | 6% | pest or weed control at 0.25 % ([2]; Table 10, at 0.25%): 7 ± 15%; pest or weed control at 50 µg/cm2, 50 µg/cm2 ([3]; Table 10, 50 μg/cm^2, read-out: F.D (%) Mean ± SE N = 25): 92 ± 6%; mortality at 0.25 % [4, 12]: 6.4% |
| CCN(CC)C(=O)c1cccc(C)c1 [DEET, reference compound] | – | – | – | – | – | – | OD (%) Mean ± SE N = 35-40 ([2]; Table 8, at 0.25%): 23 ± 14%; F.D (%) Mean ± SE N = 25 ([3]; Table 8, 50 μg/cm^2): 60 ± 15 ^AB %; Mortality (%) N = 3 × 10 ([4]; Table 8, at 0.25%): 7% |
| C/C=C(\C)C(=O)O[C@H]1C[C@@H](OC(C)=O)[C@@]2(C(=O)OC)CO[C@H]3[C@@H](O)[C@@](C)([C@]45O[C@@]4(C)[C@H]4C[C@@H]5O[C@@H]5OC=C[C@@]54O)[C@H]4[C@]1(CO[C@]4(O)C(=O)OC)[C@@H]32 [azadirachtin, reference compound] | – | – | – | – | – | – | FDI (%) mean (SE) ([5]; 4.9 ug/cm^2 in vehicle, fifth instar larvae): 43 (20) a % |
